The record followed here is patent US9029400B2, “5-oxoisoxazoles as inhibitors of lipases and phospholipases” (Sanofi, priority 2007, dated 2015).

This assay addresses T1, endothelial lipase (EL) (Homo sapiens, UniProt Q9Y5X9).
T1 construct: made in house; host or cells: recombinant CHO or HEK293 cell lines; concentrated conditioned medium used as enzyme solution
T1 sequence (Q9Y5X9 21-500): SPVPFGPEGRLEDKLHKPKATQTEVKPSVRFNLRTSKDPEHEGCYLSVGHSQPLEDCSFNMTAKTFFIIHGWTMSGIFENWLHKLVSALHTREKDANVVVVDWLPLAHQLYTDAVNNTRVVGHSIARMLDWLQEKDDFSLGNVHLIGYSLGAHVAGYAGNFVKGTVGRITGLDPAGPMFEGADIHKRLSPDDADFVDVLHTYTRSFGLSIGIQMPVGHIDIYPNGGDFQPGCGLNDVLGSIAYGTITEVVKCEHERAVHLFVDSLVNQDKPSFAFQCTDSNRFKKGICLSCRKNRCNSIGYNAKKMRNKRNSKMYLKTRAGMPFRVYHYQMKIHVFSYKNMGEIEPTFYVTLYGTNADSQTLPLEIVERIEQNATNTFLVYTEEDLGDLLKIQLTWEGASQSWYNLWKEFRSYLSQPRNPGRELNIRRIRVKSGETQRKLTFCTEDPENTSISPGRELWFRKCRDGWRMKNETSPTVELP
Nature of the assay: EL inhibition assay (endothelial lipase activity, fluorescent Bodipy phospholipid substrate). The assay is classed as biochemical. The following applies: 37° C., 90 minutes; enzyme from conditioned medium of recombinant cell lines (CHO, HEK293). As for the experimental part:
The activity of the compounds of the invention of the formula I was tested in the following enzyme assay system: […]
EL is released as secretory protein in high concentration into cell culture medium (conditioned medium) by recombinant cell lines (CHO, HEK293). This is employed as enzyme solution after concentration.
The phospholipase-specific substrate 1,2-bis(4,4-difluoro-5,7-dimethyl-4-bora-3a,4a-diaza-s-indacene-3-undecanoyl)-sn-glycero-3-phosphocholine, (manufacturer Molecular Probes) is used to characterize the enzymatic activity of endothelial lipase and the effect of inhibitors. Hydrolysis of the A1 ester linkage of this phospholipid by the enzyme liberates a fatty acid labeled by the fluorescent dye Bodipy which can be detected after separation by thin-layer chromatography on an HPTLC plate (silica gel 60, Merck) or directly in the reaction vessel by measuring the fluorescence.
The substrate solution is prepared by dissolving 100 μg of 1,2-bis(4,4-difluoro-5,7-dimethyl-4-bora-3a,4a-diaza-s-indacene-3-undecanoyl)-sn-glycero-3-phosphocholine (manufacturer Molecular Probes) in 100 μl DMSO and taking it up in 2.4 mg of tripalmitin (Sigma) in 393 μl chloroform which contains 20 mg/ml DOP-choline (1,2-dioleoyl-sn-glycero-3-phosphocholine). 39.3 μl of this lipid mixture are transferred into a fresh reaction vessel and the solvent is evaporated. The lipid mixture is dissolved in 4 ml of 200 mM TRIS-HCl, 150 mM sodium chloride, pH=7.4, by sonication twice. The subsequent enzymic reaction takes place at 37° C. for 90 minutes. For this purpose, 20 μl of the substrate solution are incubated with 2 μl of inhibitor of appropriate concentration (dissolved in 10% DMSO, 10% strength DMSO solution is used as control) and 2 μl of enzyme solution (conditioned medium). Then 4 μl of the assay mixture are loaded onto an HPTLC plate (silica gel 60, Merck), and the liberated fluorescent dye is separated for detection with an eluent (diethyl ether:petroleum benzine:acetic acid [78:22:1]). After evaporation of the eluent, the plate is read in a fluorescence scanner. An increased release of the fluorescent dye in the uninhibited reaction is to be observed as a measure of the enzymic activity.
The enzymatic activity is reduced as a function of the inhibitor concentration used, and the inhibitor concentration at which a half-maximum enzymic activity is observed is called IC50.

In general, IC50 refers to the midpoint of a concentration-inhibition curve. With `Cc1c(C)n(C(=O)NC2CCc3ccccc32)oc1=O` (stereo not drawn) [Example 31], the IC50 is 0.1 µM.
As for `Cc1ccc(CNC(=O)n2oc(=O)c3c2CCCC3)cc1C` [Example 25], the IC50 is 0.009 µM.
As to `O=C(N[C@H]1CCc2ccccc21)n1oc(=O)cc1C1CC1` [Example 44], the IC50 was found to be 0.5 µM.
Then `Cc1c(C(C)C)c(=O)on1C(=O)NCc1cccs1` [Example 18], with 14.1 µM.
Then `Cc1c(C(C)C)c(=O)on1C(=O)NCc1cc2ccccc2s1` [Example 8], with 3.2 µM; and `Cc1cccc(C)c1CNC(=O)n1oc(=O)c2c1CCCC2` [Example 39], with 0.001 µM.
As for `Cc1ccc(CNC(=O)n2oc(=O)c3c2CCCC3)cc1` [Example 26], the figure is 0.035 µM.
With `Cc1cccc(CNC(=O)n2oc(=O)c3c2CCCC3)c1` [Example 40], the IC50 was 0.053 µM.
Then `Cc1ccc(CNC(=O)n2oc(=O)c(C(C)C)c2C)cc1C` [Example 16], with 0.004 µM; and `Cc1ccccc1CNC(=O)n1oc(=O)c(C(C)C)c1C` [Example 6], with 0.028 µM.
Then `Cc1ccc(CNC(=O)n2oc(=O)c(C(C)C)c2C)cc1` [Example 7], with 0.9 µM.
Then `Cc1c(C(C)C)c(=O)on1C(=O)NC1CCc2ccccc21` (stereo not drawn) [Example 10], with 0.06 µM.
